Assay results taken from patent publication US8940728B2 (priority 2012, dated 2015).
Where two headings read alike, the source gives them in different places.

Key:
[1] = molecular target: T1, α3β4 nicotinic receptor subtype (Homo sapiens, UniProt P30926+P32297); test: cell-based
T1 construct: SH-SYSY cells predominantly express the α3β4 nicotinic receptor subtype; endogenous in cells; host or cells: SH-SYSY (SH-SY5Y) cells
Text: (§1) The HEK293 (a3b4, a4b2 and a7) and SH-SYSY cell lines (a3b4) expressing nAChRs are used. Validated assays optimized with respect to sensitivity, dynamic range, signal intensity and stability for chemical probe validation and SAR refinement are used.

[2] = CNS penetration across the brain blood barrier; conditions: in vivo
Procedure: Mice are dosed with compounds. Brain to blood ratios are determined by HPLC and LC/MS/MS analysis following oral administration of the test compounds in mice.

[3] = molecular target: T2, a3b4 nAChRs (Homo sapiens, UniProt P30926+P32297); test: Relative potency on epibatidine-induced calcium response at a3b4 nAChRs; format: cell-based
Procedure: as §1
(§2) Nicotinic functional assays are performed using the Molecular Devices FLIPR® Calcium 5 Assay Kit. HEK293 cells overexpressing α3β4, α4β2 or α7 (50,000 cells per well in 100 μl growth media) and are plated in clear bottom black walled 96-well microplates and incubated for 24-48 hours at 37° C., 5% CO2 until a 80-90% confluent monolayer is formed. On the day of the assay, 100 μl of Calcium 5 Dye is added to each well. Following addition of dye, cells are incubated at 25° C. for 60 minutes. Following dye loading, 50 μl of a 5× solution of reference or test compound of appropriate concentration range (0.01-30 μM), prepared in 20 mM HEPES pH 7.4 in HBSS, is added to each well. Plates are then transferred to the Molecular Devices Flexstation® which transfers 50 μL of a 5× solution (500 nM) of epibatine to each well to initiate the Ca+2 flux. Additional wells (in quadruplicate) are prepared with no added test or reference ligand for measurement of 100% flux. The RFU (relative fluorescence units) in the presence of the test or reference compounds is then expressed on the percent scale. The percent inhibition of epibatidine induced Ca^+2 flux is calculated as follows: % inhibition=100%−% RFU (relative fluorescence units). The IC50 values for reference and test compounds are obtained by fitting normalized RFU data using Graphpad Prism software.

[4] = molecular target: T2, a3b4 nAChRs; test: FLIPR Ca+2 flux assay, epibatidine-induced calcium response, SH-SYSY cells; format: cell-based
Procedure: as §1
as §2, with “Additional wells (in quadruplicate) are prepared with no added test or reference ligand for measurement of 100% flux.” left out, “The IC50 values for reference and test compounds are obtained by fitting normalized RFU data using Graphpad Prism software.” left out

[5] = molecular target: T2, a3b4 nAChRs; test: FLIPR Ca+2 flux assay, epibatidine-induced calcium response, A3B4-HEK cells; format: cell-based
Procedure: as §1
as §2, with “Additional wells (in quadruplicate) are prepared with no added test or reference ligand for measurement of 100% flux.” left out, “The IC50 values for reference and test compounds are obtained by fitting normalized RFU data using Graphpad Prism software.” left out

[6] = molecular target: 5-HT transporter (Homo sapiens, UniProt P31645); test: 5-HT transporter radioligand binding
Procedure: (§3) Established radioligand binding methods are used to evaluate the ability of the compounds to block reuptake of serotonin and dopamine in membrane preparations of synaptosomes. Equilibrium binding affinity values is determined for each compound at opioid receptors (μ and κ subtypes) and biogenic amine transporters (DAT and SERT). Where possible, binding experiments utilize membranes derived from CHO or HEK293 cells engineered to overexpress the human form of the receptor or transporter of interest. Radiolabeling of opioid receptors, and biogenic amine transporters utilizes conventional radioligands, buffers and incubation conditions according to published assays.
(§4) Test compounds, reference compounds and the radioligand (Kd value) are added to binding buffer. Assays are run with test or reference compound over a range of concentration (0.0001-10 uM) in triplicate using a 96-well sample plate containing radioligands specific for the target receptor or transporter. […] Bound radioactivity is counted in a Microbeta scintillation counter. Total bound radioactivity is estimated from triplicate wells containing no test or reference compound, together with nonspecific binding and filter blanks. The average bound radioactivity in the presence of the test compounds is expressed % inhibition=100%−% radioactivity bound. […]

[7] = molecular target: T3, mu opioid receptor (mOR) (Homo sapiens, UniProt P35372); test: Mu opioid receptor radioligand binding
T3 construct: expressed in transfected cells; host or cells: CHO or HEK293
Procedure: as §3, §4

[8] = molecular target: T4, kappa opioid receptor (kOR) (Homo sapiens, UniProt P41145); test: Kappa opioid receptor radioligand binding
T4 construct: expressed in transfected cells; host or cells: CHO or HEK293
Procedure: as §3, §4

[9] = Binding panel of over 50 receptors, transporters, ion channels, second messengers, growth factor receptors and enzymes; conditions: at physiologically relevant concentrations
Text: The association between cigarette smoking and the presence and severity of suicidal behavior across major psychiatric disorders may be related to lower brain serotonin function in smokers with depression).

T2 sequence (P30926 22-498): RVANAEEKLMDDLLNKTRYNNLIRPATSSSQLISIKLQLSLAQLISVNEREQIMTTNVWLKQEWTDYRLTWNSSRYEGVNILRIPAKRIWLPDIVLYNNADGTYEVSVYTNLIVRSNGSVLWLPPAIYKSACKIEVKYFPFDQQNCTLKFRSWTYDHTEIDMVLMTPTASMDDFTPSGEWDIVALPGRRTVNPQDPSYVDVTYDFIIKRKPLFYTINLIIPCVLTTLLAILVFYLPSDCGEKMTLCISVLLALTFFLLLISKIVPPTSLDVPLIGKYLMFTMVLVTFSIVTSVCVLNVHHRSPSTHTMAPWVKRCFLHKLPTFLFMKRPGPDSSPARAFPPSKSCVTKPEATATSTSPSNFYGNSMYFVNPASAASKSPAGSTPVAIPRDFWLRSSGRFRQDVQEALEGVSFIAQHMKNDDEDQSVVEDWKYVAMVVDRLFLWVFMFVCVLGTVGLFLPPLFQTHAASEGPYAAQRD
T2 sequence (P32297 32-505): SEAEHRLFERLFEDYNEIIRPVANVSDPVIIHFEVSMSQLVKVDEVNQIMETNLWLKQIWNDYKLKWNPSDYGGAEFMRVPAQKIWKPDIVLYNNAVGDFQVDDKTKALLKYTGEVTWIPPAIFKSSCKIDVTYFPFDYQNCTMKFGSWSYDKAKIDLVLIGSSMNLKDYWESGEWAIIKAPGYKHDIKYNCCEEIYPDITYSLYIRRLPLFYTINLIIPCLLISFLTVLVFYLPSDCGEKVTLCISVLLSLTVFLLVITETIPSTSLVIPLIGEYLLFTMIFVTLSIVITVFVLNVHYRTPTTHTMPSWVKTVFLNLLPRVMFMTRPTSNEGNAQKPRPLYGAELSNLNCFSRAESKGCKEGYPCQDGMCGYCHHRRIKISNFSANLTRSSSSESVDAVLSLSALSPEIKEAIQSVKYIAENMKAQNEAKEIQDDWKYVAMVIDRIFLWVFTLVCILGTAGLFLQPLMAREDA
T1 sequence (P32297 32-505): as above
T1 sequence (P30926 22-498): as the sequence (P30926 22-498) above
5-HT transporter, sequence (P31645 whole entry): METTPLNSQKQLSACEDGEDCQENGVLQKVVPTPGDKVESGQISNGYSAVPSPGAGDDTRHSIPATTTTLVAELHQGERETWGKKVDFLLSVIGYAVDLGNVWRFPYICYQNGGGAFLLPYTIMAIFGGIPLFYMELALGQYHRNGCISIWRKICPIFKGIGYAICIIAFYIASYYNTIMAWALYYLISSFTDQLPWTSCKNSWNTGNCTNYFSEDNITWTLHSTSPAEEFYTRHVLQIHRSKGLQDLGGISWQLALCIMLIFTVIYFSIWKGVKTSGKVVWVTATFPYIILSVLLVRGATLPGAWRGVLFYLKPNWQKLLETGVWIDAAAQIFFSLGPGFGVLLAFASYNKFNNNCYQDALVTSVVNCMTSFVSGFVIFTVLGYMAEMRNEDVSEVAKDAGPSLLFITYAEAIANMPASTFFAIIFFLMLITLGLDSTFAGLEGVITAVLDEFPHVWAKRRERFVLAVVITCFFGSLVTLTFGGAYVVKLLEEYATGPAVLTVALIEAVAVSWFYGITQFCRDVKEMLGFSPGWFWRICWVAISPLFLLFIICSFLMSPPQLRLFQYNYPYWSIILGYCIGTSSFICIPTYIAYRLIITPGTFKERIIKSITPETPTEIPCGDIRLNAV
T4 sequence (P41145 whole entry): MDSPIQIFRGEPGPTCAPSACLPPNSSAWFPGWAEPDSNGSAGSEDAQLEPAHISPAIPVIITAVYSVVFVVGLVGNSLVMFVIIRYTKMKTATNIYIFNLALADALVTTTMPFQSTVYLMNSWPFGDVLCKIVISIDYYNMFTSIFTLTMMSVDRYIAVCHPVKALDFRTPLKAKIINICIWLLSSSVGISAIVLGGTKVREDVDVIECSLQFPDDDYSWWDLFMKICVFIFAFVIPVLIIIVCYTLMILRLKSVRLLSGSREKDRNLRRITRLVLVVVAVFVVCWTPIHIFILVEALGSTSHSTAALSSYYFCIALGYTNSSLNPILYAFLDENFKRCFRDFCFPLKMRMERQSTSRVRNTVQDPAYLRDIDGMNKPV
T3 sequence (P35372 whole entry): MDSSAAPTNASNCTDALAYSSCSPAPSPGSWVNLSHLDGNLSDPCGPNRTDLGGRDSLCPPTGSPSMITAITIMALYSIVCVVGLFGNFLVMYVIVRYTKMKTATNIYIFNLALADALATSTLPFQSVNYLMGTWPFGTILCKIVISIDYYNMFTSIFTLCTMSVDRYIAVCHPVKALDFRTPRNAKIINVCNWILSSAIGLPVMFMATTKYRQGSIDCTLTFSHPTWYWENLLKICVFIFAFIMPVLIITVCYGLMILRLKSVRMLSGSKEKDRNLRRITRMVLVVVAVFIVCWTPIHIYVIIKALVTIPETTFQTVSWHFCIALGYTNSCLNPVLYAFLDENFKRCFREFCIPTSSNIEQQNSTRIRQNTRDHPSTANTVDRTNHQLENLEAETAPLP

Compound	IC50 ([1]; Caliper, read-out: IC50 (uM) Caliper, inhibition of epibatidine-induced calcium response)	IC50 ([1]; SH-SYSY cells, preliminary studies by Caliper Life Sciences, read-out: IC50 as antagonist for epibatine induced Ca+2 flux)	Crossing of the BBB and concentration in brain [2]	IC50 ([3]; reference value for the ratios of Table 4, read-out: Potency of 18-MC at a3b4 nAChRs taken as reference)	Ratio from 18-MC (relative potency at a3b4 nAChRs) ([3]; relative to 18-MC = 1 (4 uM))	IC50 ([4]; SH-SYSY cells, read-out: IC50 (uM) SH-SYSY, inhibition of epibatidine-induced calcium response)	IC50 [5]	IC50 ([1]; IC50 (uM) Caliper, inhibition of epibatidine-induced calcium response, Caliper)	IC50 ([1]; IC50 as antagonist for epibatine induced Ca+2 flux, SH-SYSY cells, preliminary studies by Caliper Life Sciences)	Affinity to the 5-HT transporter [6]	Affinity at mu opioid receptors [7]	Affinity at kappa opioid receptors [8]	Targets bound in the panel [9]	IC50 [4]	Potency as inhibitor of epibatidine-induced calcium response compared with 18-MC and noribogaine ([3]; in words)
COCC[C@H]1CC2CN3CCc4c([nH]c5ccccc45)[C@](C(=O)OC)(C2)[C@H]13 [Compound 18-MC, 18-methoxycoronaridine]	3.9 µM	3.89 µM	cross the BBB and reach micromolar concentrations in brain	4 µM	1	3.9 µM	–	–	–	–	–	–	–	–	–
CC[C@H]1CC2C[C@H]3c4[nH]c5ccc(O)cc5c4CCN(C2)C13 [Noribogaine, 12-hydroxyibogamine]	–	–	cross the BBB and reach micromolar concentrations in brain	–	–	–	18 µM	1 µM	0.462 µM	50 nM	900 nM	1 µM	only bound to SERT, DAT, mu and kappa opioid receptors	0.3 µM	–
Ibogaine	–	–	–	–	–	–	–	–	–	–	–	–	–	–	more potent inhibitors than 18-MC
